Data reported in patent publication US4957735A, “Target-sensitive immunoliposomes- preparation and characterization” (The University of Tennessee Research Corporation, priority 1987, dated 1990).
pKi: −log10 of the molar value. ≈ marks a conversion by molar mass, not a printed value. Where two headings read alike, the source gives them in different places.

Legend:
[1] = biological target: nucleoside transport system; conditions: cited from earlier work
HSV [2] = assay: Repression of TS immunoliposome mediated therapeutic effect by nucleoside transport inhibitors (HSV yield, TCID50 assay); type: cell-based, HSV-1, HF strain; conditions: for repression of therapeutic effect of AraC-encapsulated TS immunoliposomes: Table II; for Log[HSV], with liposome: 0.1 microg/ml AraC in TS immunoliposomes
Procedure: While not wishing to be bound by theory, it is believed that the surface deposition of TS immunoliposomes was followed by transport of liposome-released drugs into the cytosol via cellular nucleoside transporters. To test this hypothesis, the effect on virus replication of two nucleoside transport inhibitors, p-nitrothiobenzylinosine, and dipyridamole were investigated.
PI was determined using the TCID50 assay described in Example 14
^b HSV infected cells were treated with or without 0.1 microg/ml
(ug/ml) of AraC encapsulated in the TS immunoliposomes.
(§1) Inhibitors were present throughout the assay. […] At 6 hr. […] At 42 hr.

HSV [3] = assay: Efficacy in inhibiting HSV replication in L929 cells (virus yield, TCID50 assay); type: cell-based, HSV-1, HF strain; conditions: HSV-infected L929 cells; for free drug amount required for comparable antiviral activity relative to TS immunoliposome encapsulated AraC: FIG. 7B
Procedure: The HF strain of HSV-1 was propagated on Hep-2 cell. After 3 cycles of freeze and thawing of the virus infected cells, the virus released were isolated from the supernatant after palleting the cell debris at 1000 g for 10 min. These virus stock contained 1×10^8 pfu/ml and were stored in -70° C.
as §1

[4] = L929 cell toxicity assay ([3H]dT incorporation); conditions: mouse, l929 cells
Procedure: (§2) As a measure of cytotoxicity, the drug concentration required to inhibit 50% of [^3 H]dT incorporation 42 hr. later (CD50) was determined.
(§3) PI. […] At 42 hr. PI, the supernatant of the L929 cells was collected and titered for the virus yield. The toxicity of the drug on the general cell population was monitored by [^3 H]dT incorporation since both AraC and ACV inhibit the DNA synthesis.
(§4) L929 cells at 75-80% confluency in 96-well Coster plates were infected with 0.1 multiplicity of infection (MOI) in McCoy's medium with 2% CS for 1 hr. Then the infection medium was removed and replaced with McCoy's medium containing 10% CS. For the target sensitivity assay (see below), L929 cells were grown in 35-mm six-well Linbro plates and a similar procedure was used to infect the L929 cell with various concentration of HSV, ranging from 0-10 MOI.
(§5) HSV-infected L929 cells in 7-mm 96-well plates were used in these experiments and each experiment was performed in quadruplicate. At 3 hr. post infection (PI), the growth medium of infected or uninfected cell was removed, and replaced with 180 micro-l of either liposome-entrapped or free drug AraC or ACV containing medium.
(§6) In the experiments where nucleoside-transport inhibitors were used, the inhibitors were added at 30 min. prior to the AraC-entrapped liposome addition. Inhibitors were present throughout the assay. For the control experiments, the infection medium was replaced with the fresh growth medium. At 6 hr. PI, 1 micro-Ci of [^3 H]dT was added in 20 micro-l for cytotoxicity assay (see below). Then incubation continued at 37° C. in a CO2 incubator. At 42 hr. PI, the growth medium was removed and immediately titered for the virus yield using the 50% tissue culture infective dose (TCID50) assay using Vero cells. The TCID50 assay was done in quadruplicates and the results were expressed in average ±S.D.
(§7) Cytotoxicity of the L929 cells was determined by 20 labeling the cells at 6 hr. PI with [3H]dT. At 42 hr. PI, the growth medium was removed and the cells were washed with cold PBS for a total of three times. Then the DNA was precipitated with 5% trichloroacetic acid (TCA) at 4° C. After two cycles of 2 hr. incubation with fresh TCA, the precipitates at the bottom of the plates were washed one more time with 200 micro-l of fresh TCA. Finally, the precipitates were redissolved and dequenched with 1N NaOH overnight. The solubilized TCA precipitates were counted for tritium radioactivity. Data presented were the average ±S.D. of the quadruplicates.

L929 cells = assay: L929 cell toxicity assay ([3H]dT incorporation); conditions: for CD50 (drug concentration required to inhibit 50% of [3H]dT incorporation): 42 hr.
Procedure: as §2, §3, §4, §5, §6, §7

SMILES: OCCN(CCO)c1nc(N2CCCCC2)c2nc(N(CCO)CCO)nc(N3CCCCC3)c2n1 [Dipyridamole]
- pKi ([1]; noncompetitive inhibitor): 5.52
- repression of therapeutic effect of AraC-encapsulated TS immunoliposomes (HSV [2]): concentration dependent
- Log[HSV] Diff. (with vs without liposome) (HSV [2]; inhibitor 1.4 uM): 1.6
- Log[HSV], without liposome (HSV [2]; inhibitor 1.4 uM): 5.3 ± 0.3
- Log[HSV], with liposome (HSV [2]; inhibitor 1.4 uM): 3.7 ± 0.3
- Log[HSV] Diff. (with vs without liposome) (HSV [2]; inhibitor 11.1 uM): 1.4
- Log[HSV], without liposome (HSV [2]; inhibitor 11.1 uM): 4.8 ± 0.3
- Log[HSV], with liposome (HSV [2]; inhibitor 11.1 uM): 3.4 ± 0.4

SMILES: Nc1ccn([C@@H]2O[C@H](CO)[C@@H](O)[C@@H]2O)c(=O)n1 [AraC, cytosine-beta-D-arabinoside]
- inhibition of virus replication (HSV [3]): only a marginal effect on virus replication
- free drug amount required for comparable antiviral activity relative to TS immunoliposome encapsulated AraC (HSV [3]): at least 1000 fold
- free drug amount required for comparable antiviral activity relative to TS immunoliposome encapsulated AraC (HSV [3]; listed as free AraC): ≥ 1000 fold
- CC50 at 42 h [4]: 0.0003 µg/mL (≈ 0.00123 µM)
- CD50 (drug concentration required to inhibit 50% of [3H]dT incorporation) (L929 cells): 0.3 ng/mL
- cytotoxicity (L929 cells; HSV-infected / host L929 cells): cytotoxic to infected cells
- cytotoxicity to uninfected cells (L929 cells; uninfected control cells, [3H]dT incorporation): cytotoxic

SMILES: Nc1nc2c(ncn2COCCO)c(=O)[nH]1 [ACV, acycloguanosine]
- EC50 (HSV [3]; Human alphaherpesvirus 1, 42 hr. PI, FIG. 8, read-out: 50% effective dose (ED50), virus inhibition): 1.1 µg/mL (≈ 4.88 µM)
- CC50 at 42 h [4]: 0.0125 µg/mL (≈ 0.0555 µM)
- CD50 (drug concentration required to inhibit 50% of [3H]dT incorporation) (L929 cells): 12.5 ng/mL

SMILES: O=[N+]([O-])c1ccc(CSc2ncnc3c2ncn3[C@@H]2O[C@H](CO)[C@@H](O)[C@H]2O)cc1 [p-Nitrothiobenzylinosine, S-(p-Nitrobenzyl)-6-thioinosine]
- pKi ([1]; competitive inhibitor): 9.00
- repression of therapeutic effect of AraC-encapsulated TS immunoliposomes (HSV [2]): concentration dependent
- Log[HSV] Diff. (with vs without liposome) (HSV [2]; inhibitor 12.5 nM): 2.3
- Log[HSV], without liposome (HSV [2]; inhibitor 12.5 nM): 5.1 ± 0.9
- Log[HSV], with liposome (HSV [2]; inhibitor 12.5 nM): 2.8 ± 0.8
- Log[HSV] Diff. (with vs without liposome) (HSV [2]; inhibitor 100.0 nM): 0.8
- Log[HSV], without liposome (HSV [2]; inhibitor 100.0 nM): 4.6 ± 0.2
- Log[HSV], with liposome (HSV [2]; inhibitor 100.0 nM): 3.8 ± 0.4
